Test [1] deals with platelets (platelet-rich plasma). In words: Platelet phenotyping: platelet aggregation in platelet-rich plasma by light transmission aggregometry, U46,619 with or without PGE2. The test is classed as cell-based, human. The conditions noted are these: PGE2 100 nmol/L preincubated with PRP, sub-maximal U46,619, aggregation recorded 6 min, n=86 (FIG. 1). As for the experimental part:
Measurements of platelet aggregation in PRP were made using light transmission aggregometry using a Chrono-Log lumi-aggregometer (Model 460VS). The aggregometer was calibrated for each sample to read 0-10% light transmission for PRP and 90-100% light transmission for PPP. Aliquots of PRP were placed in siliconized glass cuvettes containing Teflon-coated stir bars and incubated for 2 minutes at 37° C. PRP was preincubated with or without 100 nM PGE2 for 10-20 s before adding U46,619 at various concentrations. Samples were stirred at 800 rpm throughout a 6 minute aggregation run. Experiments were completed within 2 hours of phlebotomy. Percentage aggregation was recorded with Aggrolink software (Chrono-Log) and exported to GraphPad Prism for analysis. For each subject, multiple doses of U46,619 agonist were used to construct a dose response curve according to methods described previously; each U46,619 dose was tested with and without PGE2.
In order to describe the phenotypic observation in a quantitative rather than just qualitative format a continuous variable was constructed as follows: for each dose of U46,619, the aggregation value obtained at the end of the 6 min run in the presence of PGE2 was subtracted from the value obtained without PGE2. The largest difference was reported as the maximum PGE2 effect (maximum difference). […]

The subject of test [2] is platelets from an individual with the low threshold phenotype. The following applies: platelets of low threshold (potentiating) phenotype treated with the EP3 antagonist; ref [6], FIG. 2; cited from earlier work.

The text below walks through data of patent US10203322B2, “Method for identifying subjects with increased risk of ST-segment elevation myocardial infarction (STEMI) and identifying subjects likely to respond to particular treatments” (Vanderbilt University, priority 2017, dated 2019).

Regarding `CCCCC[C@H](O)/C=C/[C@H]1[C@H](O)CC(=O)[C@@H]1C/C=C\CCCC(=O)O` [PGE2, Prostaglandin E2], in test [1], the “individuals in whom PGE2 decreases the threshold of platelet activation by the thromboxane agonist U46,619 (inhibitory phenotype)” value is recorded as 56 % of individuals and the “individuals in whom PGE2 increases the threshold of platelet activation by the thromboxane agonist U46,619 (potentiating phenotype)” value is reported as 44 % of individuals.
For the compound `Cc1cn(Cc2ccc(Cl)cc2Cl)c2c(/C=C/C(=O)NS(=O)(=O)c3cc(Cl)c(Cl)s3)cc(F)cc12` [DG-041], the “shift of PGE2 response phenotype” value in test [2] was “the phenotype shifts to high threshold”.
